This is an account of results in patent US8741934B2, “Inhibitors of ion channels” (Pfizer Limited, priority 2007, dated 2014).

This assay has as its target T1, hSCN3A sodium channels (Homo sapiens, UniProt Q9NY46).
T1 construct: expressed in transfected cells
Description: hSCN3A electrophysiology, Ionworks Quattro automated platform (Table C). Type of assay: cell-based. Particulars: for inhibition at 3 µM: 3 μM compound, read-out: SCN3A % INHIB HTS IWQ 3 μM; for inhibition at 10 µM: 10 μM compound, read-out: SCN3A % INHIB HTS IWQ 10 μM. On the procedure:
Human Embryonic Kidney (HEK) cells were transfected with an hSCN3A construct using lipofectamine reagent (Invitrogen), using standard techniques. […] Clones were screened for expression using the whole-cell voltage-clamp technique.
HEK cells stably transfected with hSCN3A were maintained in DMEM medium supplemented with 10% heat-inactivated fetal bovine serum and 400 μg/ml G418 sulfate in an incubator at 37° C. with a humidified atmosphere of 10% CO2. […] For electrophysiological studies, cells were removed from the culture flask by brief trypsinization and replated at low density onto glass cover slips. Cells were typically used for electrophysiological experiments within 24 to 72 h after plating.
Electrophysiological assays were also conducted using the Ionworks Quattro automated electrophysiological platform (Molecular Devices Corp) (Table C). Intracellular and extracellular solutions were as described above with the following changes, 100 μg/ml amphotericin was added to the intracellular solution to perforate the membrane and allow electrical access to the cells. hSCN3A cells were grown and harvested as for PatchXpress and cells were resuspended in extracellular solution at a concentration of 3-4×10^6 cells/ml. The onboard liquid handling facility of the Ionworks Quattro was used for dispensing cells and application of test compounds. A voltage protocol was then applied that comprised of a voltage step to fully inactivate the sodium channels, followed by a brief hyperpolarized recovery period to allow partial recovery from inactivation for unblocked sodium channels, followed by a test depolarized voltage step to assess magnitude of inhibition by test compound. Compound effect was determined based on current amplitude difference between the pre-compound addition and post-compound addition scans.

T1 sequence (Q9NY46 whole entry): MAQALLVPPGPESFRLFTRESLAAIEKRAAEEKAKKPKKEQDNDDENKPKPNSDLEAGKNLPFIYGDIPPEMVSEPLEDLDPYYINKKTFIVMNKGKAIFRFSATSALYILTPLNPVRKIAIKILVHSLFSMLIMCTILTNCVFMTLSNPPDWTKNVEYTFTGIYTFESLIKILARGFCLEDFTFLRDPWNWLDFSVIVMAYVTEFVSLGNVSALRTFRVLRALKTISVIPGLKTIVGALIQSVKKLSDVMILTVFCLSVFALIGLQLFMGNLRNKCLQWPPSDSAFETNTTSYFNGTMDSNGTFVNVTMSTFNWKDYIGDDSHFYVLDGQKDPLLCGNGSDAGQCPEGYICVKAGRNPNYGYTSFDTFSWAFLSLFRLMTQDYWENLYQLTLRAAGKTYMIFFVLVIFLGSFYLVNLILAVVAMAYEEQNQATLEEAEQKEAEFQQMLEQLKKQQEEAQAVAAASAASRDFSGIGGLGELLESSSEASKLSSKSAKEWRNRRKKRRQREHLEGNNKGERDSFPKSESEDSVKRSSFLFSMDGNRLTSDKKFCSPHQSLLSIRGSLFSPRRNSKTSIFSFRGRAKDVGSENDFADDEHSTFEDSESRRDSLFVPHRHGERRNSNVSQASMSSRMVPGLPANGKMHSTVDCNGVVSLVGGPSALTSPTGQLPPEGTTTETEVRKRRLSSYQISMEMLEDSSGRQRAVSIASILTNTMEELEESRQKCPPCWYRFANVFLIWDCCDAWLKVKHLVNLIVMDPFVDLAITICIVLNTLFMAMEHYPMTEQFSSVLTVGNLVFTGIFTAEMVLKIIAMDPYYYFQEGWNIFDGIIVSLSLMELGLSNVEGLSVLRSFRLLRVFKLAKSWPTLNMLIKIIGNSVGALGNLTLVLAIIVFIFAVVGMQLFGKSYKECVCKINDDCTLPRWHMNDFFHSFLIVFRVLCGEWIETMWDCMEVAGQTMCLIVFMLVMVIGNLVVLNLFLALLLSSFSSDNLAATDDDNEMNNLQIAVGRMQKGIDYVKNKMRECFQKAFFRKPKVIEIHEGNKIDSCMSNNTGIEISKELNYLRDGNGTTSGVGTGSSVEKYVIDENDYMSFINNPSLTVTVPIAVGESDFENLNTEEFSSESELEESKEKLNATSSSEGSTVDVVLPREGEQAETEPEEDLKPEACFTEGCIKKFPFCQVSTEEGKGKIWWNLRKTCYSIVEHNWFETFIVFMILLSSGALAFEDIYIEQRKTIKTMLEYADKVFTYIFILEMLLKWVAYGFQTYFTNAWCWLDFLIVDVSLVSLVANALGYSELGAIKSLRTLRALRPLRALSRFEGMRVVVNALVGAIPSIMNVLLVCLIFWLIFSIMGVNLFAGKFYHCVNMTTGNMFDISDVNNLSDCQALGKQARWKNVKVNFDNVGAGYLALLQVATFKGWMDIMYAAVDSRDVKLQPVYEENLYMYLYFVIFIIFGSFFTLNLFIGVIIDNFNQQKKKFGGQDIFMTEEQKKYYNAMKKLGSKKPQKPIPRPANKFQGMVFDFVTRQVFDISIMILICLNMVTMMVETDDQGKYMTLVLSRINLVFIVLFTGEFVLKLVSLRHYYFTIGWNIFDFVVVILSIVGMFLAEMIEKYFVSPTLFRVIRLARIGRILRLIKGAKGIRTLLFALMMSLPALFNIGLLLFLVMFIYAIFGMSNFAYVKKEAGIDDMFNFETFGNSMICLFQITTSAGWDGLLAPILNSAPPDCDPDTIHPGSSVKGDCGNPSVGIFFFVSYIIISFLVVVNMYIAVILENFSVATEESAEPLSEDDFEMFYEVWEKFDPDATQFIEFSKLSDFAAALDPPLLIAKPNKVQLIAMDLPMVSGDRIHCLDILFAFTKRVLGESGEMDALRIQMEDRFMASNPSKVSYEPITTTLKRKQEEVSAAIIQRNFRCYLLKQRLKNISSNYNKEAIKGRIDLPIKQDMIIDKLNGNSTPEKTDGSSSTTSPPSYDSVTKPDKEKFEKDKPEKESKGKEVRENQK

Regarding `CC(NC(=O)c1ccc(S(=O)(=O)Nc2nccs2)cc1)c1ccccc1Cl` (stereo not drawn) [Example 143, N-[1-(2-chlorophenyl)ethyl]-4-[(1,3-thiazol-2-ylamino)sulfonyl]benzamide], the inhibition at 3 µM is 16% and the inhibition at 10 µM came to 32%.

For `CC[C@H](NC(=O)c1ccc(S(=O)(=O)Nc2nccs2)cc1)c1ccccc1` [Example 145, N-[(1S)-1-phenylpropyl]-4-[(1,3-thiazol-2-ylamino)sulfonyl]benzamide], the inhibition at 3 µM came out at 2.05% and the inhibition at 10 µM turned out to be 19.4%.

Turning to `CC(C)(NC(=O)c1ccc(S(=O)(=O)Nc2nccs2)cc1)c1ccc(F)c(F)c1` [Example 146, N-[1-(3,4-difluorophenyl)-1-methylethyl]-4-[(1,3-thiazol-2-ylamino)sulfonyl]benzamide], the inhibition at 3 µM came out at 24.3% and the inhibition at 10 µM is 27.9%.

For the compound `CC(Cc1ccc(F)cc1)NC(=O)c1ccc(S(=O)(=O)Nc2nccs2)cc1` (stereo not drawn) [Example 149, N-[2-(4-fluorophenyl)-1-methylethyl]-4-[(1,3-thiazol-2-ylamino)sulfonyl]benzamide], the inhibition at 3 µM is 12.5% and the inhibition at 10 µM worked out at 14.6%.

Turning to `CC[C@@H](NC(=O)c1ccc(S(=O)(=O)Nc2nccs2)cc1)c1ccccc1` [Example 150, N-[(1R)-1-phenylpropyl]-4-[(1,3-thiazol-2-ylamino)sulfonyl]benzamide], the inhibition at 3 µM was -7.12% and the inhibition at 10 µM amounted to 22.6%.

With `CC(Cc1ccc(F)c(F)c1)NC(=O)c1ccc(S(=O)(=O)Nc2nccs2)cc1` (stereo not drawn) [Example 151, N-[2-(3,4-difluorophenyl)-1-methylethyl]-4-[(1,3-thiazol-2-ylamino)sulfonyl]benzamide], the inhibition at 3 µM was found to be 17.4% and the inhibition at 10 µM was 12.7%.

As for `O=C(NCc1cccc(Cl)c1)c1ccc(S(=O)(=O)Nc2nccs2)cc1` [Example 152, N-(3-chlorobenzyl)-4-[(1,3-thiazol-2-ylamino)sulfonyl]benzamide], the inhibition at 3 µM was 42.2% and the inhibition at 10 µM was found to be 56.3%.

Take `O=C(NCC1(c2ccccc2)CC1)c1ccc(S(=O)(=O)Nc2nccs2)cc1` [Example 153, N-[(1-phenylcyclopropyl)methyl]-4-[(1,3-thiazol-2-ylamino)sulfonyl]benzamide]: the inhibition at 3 µM worked out at 15.9% and the inhibition at 10 µM stood at 32.9%.

For the compound `Cc1ccc(OCCNC(=O)c2ccc(S(=O)(=O)Nc3nccs3)cc2)cc1` [Example 154, N-[2-(4-methylphenoxy)ethyl]-4-[(1,3-thiazol-2-ylamino)sulfonyl]benzamide], the inhibition at 3 µM is 28% and the inhibition at 10 µM was found to be 30.8%.

Consider `CC(CNC(=O)c1ccc(S(=O)(=O)Nc2nccs2)cc1)c1ccccc1` (stereo not drawn) [Example 155, N-(2-phenylpropyl)-4-[(1,3-thiazol-2-ylamino)sulfonyl]benzamide], for which the inhibition at 3 µM was determined as 30.1% and the inhibition at 10 µM turned out to be 40.8%.

As to `Cc1cc(CC(NC(=O)c2ccc(S(=O)(=O)Nc3nccs3)cc2)c2ccc(F)cc2)on1` (stereo not drawn) [Example 156, N-[1-(4-fluorophenyl)-2-(3-methylisoxazol-5-yl)ethyl]-4-[(1,3-thiazol-2-ylamino)sulfonyl]benzamide], the inhibition at 3 µM was 13.3% and the inhibition at 10 µM was 30.3%.

Turning to `COc1ccccc1CC1(NC(=O)c2ccc(S(=O)(=O)Nc3nccs3)cc2)CC1` [Example 157, N-[1-(2-methoxybenzyl)cyclopropyl]-4-[(1,3-thiazol-2-ylamino)sulfonyl]benzamide], the inhibition at 3 µM is 11.3% and the inhibition at 10 µM came out at 15.3%.

In the case of `COc1ccc(C2(NC(=O)c3ccc(S(=O)(=O)Nc4nccs4)cc3)CC2)cc1` [Example 160, N-[1-(4-methoxyphenyl)cyclopropyl]-4-[(1,3-thiazol-2-ylamino)sulfonyl]benzamide], the inhibition at 3 µM turned out to be 15.6% and the inhibition at 10 µM was 14.8%.

For the compound `CC(CNC(=O)c1ccc(S(=O)(=O)Nc2nccs2)cc1)Oc1ccccc1` (stereo not drawn) [Example 161, N-(2-phenoxypropyl)-4-[(1,3-thiazol-2-ylamino)sulfonyl]benzamide], the inhibition at 3 µM stood at 30.3% and the inhibition at 10 µM turned out to be 32.4%.

Turning to `COc1ccc(CC2(NC(=O)c3ccc(S(=O)(=O)Nc4nccs4)cc3)CC2)cc1` [Example 162, N-[1-(4-methoxybenzyl)cyclopropyl]-4-[(1,3-thiazol-2-ylamino)sulfonyl]benzamide], the inhibition at 3 µM came to 28% and the inhibition at 10 µM turned out to be 13.7%.

Take `COc1cccc(C2(NC(=O)c3ccc(S(=O)(=O)Nc4nccs4)cc3)CC2)c1` [Example 164, N-[1-(3-methoxyphenyl)cyclopropyl]-4-[(1,3-thiazol-2-ylamino)sulfonyl]benzamide]: the inhibition at 3 µM turned out to be 16.6% and the inhibition at 10 µM came to 24.1%.

As to `COc1cccc(CCNC(=O)c2ccc(S(=O)(=O)Nc3nccs3)cc2)c1` [Example 166, N-[2-(3-methoxyphenyl)ethyl]-4-[(1,3-thiazol-2-ylamino)sulfonyl]benzamide], the inhibition at 3 µM came to 30.6% and the inhibition at 10 µM was found to be 36.3%.

As for `O=C(NCCOc1ccccc1F)c1ccc(S(=O)(=O)Nc2nccs2)cc1` [Example 167, N-[2-(2-fluorophenoxy)ethyl]-4-[(1,3-thiazol-2-ylamino)sulfonyl]benzamide], the inhibition at 3 µM is 30.8% and the inhibition at 10 µM is 43%.

With `O=C(NCCOc1ccccc1)c1ccc(S(=O)(=O)Nc2nccs2)cc1` [Example 168, N-(2-phenoxyethyl)-4-[(1,3-thiazol-2-ylamino)sulfonyl]benzamide], the inhibition at 3 µM was 31.4% and the inhibition at 10 µM was 39.3%.

For the compound `COc1ccc(CCNC(=O)c2ccc(S(=O)(=O)Nc3nccs3)cc2)cc1` [Example 169, N-[2-(4-methoxyphenyl)ethyl]-4-[(1,3-thiazol-2-ylamino)sulfonyl]benzamide], the inhibition at 3 µM is 35.3% and the inhibition at 10 µM came out at 27.3%.

With `O=C(NCc1ccccc1)c1ccc(S(=O)(=O)Nc2nccs2)cc1` [Example 171, N-benzyl-4-[(1,3-thiazol-2-ylamino)sulfonyl]benzamide], the inhibition at 3 µM came out at 39.5% and the inhibition at 10 µM is 52.8%.

For the compound `CCc1ccc(C)nc1NC(=O)c1ccc(S(=O)(=O)Nc2nccs2)cc1` [Example 178, N-(3-ethyl-6-methylpyridin-2-yl)-4-[(1,3-thiazol-2-ylamino)sulfonyl]benzamide], the inhibition at 3 µM was determined as 2.71% and the inhibition at 10 µM was found to be 1.55%.

For the compound `O=C(N[C@@H]1COC[C@@H]1c1ccc(F)cc1)c1ccc(S(=O)(=O)Nc2nccs2)cc1` [Example 179, N-[(3S,4R)-4-(4-fluorophenyl)tetrahydrofuran-3-yl]-4-[(1,3-thiazol-2-ylamino)sulfonyl]benzamide], the inhibition at 3 µM was found to be 9.95% and the inhibition at 10 µM is 15.9%.

As to `Cc1ccnc(NC(=O)c2ccc(S(=O)(=O)Nc3nccs3)cc2)c1` [Example 181, N-(4-methylpyridin-2-yl)-4-[(1,3-thiazol-2-ylamino)sulfonyl]benzamide], the inhibition at 3 µM is -12.2% and the inhibition at 10 µM worked out at 11.2%.

As for `O=C(N[C@H](CO)Cc1ccccc1)c1ccc(S(=O)(=O)Nc2nccs2)cc1` [Example 182, N-[(1S)-1-benzyl-2-hydroxyethyl]-4-[(1,3-thiazol-2-ylamino)sulfonyl]benzamide], the inhibition at 3 µM was found to be 4.7% and the inhibition at 10 µM stood at 4.83%.

In the case of `Cc1noc(C(NC(=O)c2ccc(S(=O)(=O)Nc3nccs3)cc2)c2ccccc2)n1` (stereo not drawn) [Example 183, N-[(3-methyl-1,2,4-oxadiazol-5-yl)(phenyl)methyl]-4-[(1,3-thiazol-2-ylamino)sulfonyl]benzamide], the inhibition at 3 µM turned out to be 8.9% and the inhibition at 10 µM came out at 1.34%.

With `Cc1cnc(NC(=O)c2ccc(S(=O)(=O)Nc3nccs3)cc2)c(C)c1` [Example 184, N-(3,5-dimethylpyridin-2-yl)-4-[(1,3-thiazol-2-ylamino)sulfonyl]benzamide], the inhibition at 3 µM came out at 29% and the inhibition at 10 µM came out at 20.8%.

As to `O=C(N[C@@H](CO)Cc1ccccc1)c1ccc(S(=O)(=O)Nc2nccs2)cc1` [Example 185, N-[(1R)-1-benzyl-2-hydroxyethyl]-4-[(1,3-thiazol-2-ylamino)sulfonyl]benzamide], the inhibition at 3 µM worked out at 20.9% and the inhibition at 10 µM came to 20.8%.

For `CC(C)N(Cc1ccccc1)C(=O)c1ccc(S(=O)(=O)Nc2nccs2)cc1` [Example 187, N-benzyl-N-isopropyl-4-[(1,3-thiazol-2-ylamino)sulfonyl]benzamide], the inhibition at 3 µM amounted to 5.69% and the inhibition at 10 µM was determined as 4.2%.

Take `C[C@@H]([C@H](O)c1ccccc1)N(C)C(=O)c1ccc(S(=O)(=O)Nc2nccs2)cc1` [Example 188, N-[(1S,2R)-2-hydroxy-1-methyl-2-phenylethyl]-N-methyl-4-[(1,3-thiazol-2-ylamino)sulfonyl]benzamide]: the inhibition at 3 µM was 14.5% and the inhibition at 10 µM was 1.03%.
